From ChEMBL document CHEMBL5576127, “New CDDO Arylboronate Ester Derivatives with High Selectivity and Low Toxicity” (J Med Chem, 2024)
Each block holds one compound with its values, some of them ahead of it. Calls of active or inactive are those of the source. The calls are words filed in the database; no cut-off is given here.

What was measured:
[1] = Cytotoxicity against human MCF-10A cells assessed as inhibition of cell proliferation incubated for 48 hrs by MTT assay; assay type: toxicity, cell-based
HepG2 = assay: Antiproliferative activity against human HepG2 cells assessed as inhibition of cell proliferation incubated for 48 hrs by MTT assay; assay type: functional, cell-based; conditions: HepG2, 48 h
[2] = Cytotoxicity against human GES1 cells assessed as inhibition of cell proliferation incubated for 48 hrs by MTT assay; assay type: toxicity, cell-based
MCF7 = assay: Antiproliferative activity against human MCF7 cells assessed as inhibition of cell proliferation incubated for 48 hrs by MTT assay; assay type: functional, cell-based; conditions: MCF7, 48 h
[3] = Cytotoxicity against human L02 cells assessed as inhibition of cell proliferation incubated for 48 hrs by MTT assay; assay type: toxicity, cell-based
BGC-823 [4] = assay: Antiproliferative activity against human BGC-823 cells assessed as inhibition of cell proliferation incubated for 48 hrs by MTT assay; assay type: functional, cell-based; conditions: BGC-823, 48 h
BGC-823 [5] = assay: Induction of ROS generation in human BGC-823 cells assessed as cells with green fluorescence at 1 uM incubated for 24 hrs by DCFH-DA staining based analysis relative to control; assay type: functional
MGC-803 = assay: Antiproliferative activity against human MGC-803 cells assessed as inhibition of cell proliferation incubated for 48 hrs by MTT assay; assay type: functional, cell-based; conditions: MGC-803, 48 h
[6] = Acute toxicity in ip dosed ICR mouse assessed as mortality rate by measuring ratio at 2.04 logarithm of dose relative to total number of mouse; assay type: organism-based; conditions: in vivo
BGC-823 [7] = assay: Induction of apoptosis in human BGC-823 cells assessed as late apoptotic cells at 1 uM incubated for 48 hrs by Annexin V-FITC/PI staining based flow cytometric analysis ( Rvb = 5.61 %); assay type: functional
NCI-N87 = assay: Antiproliferative activity against human NCI-N87 cells assessed as inhibition of cell proliferation incubated for 48 hrs by MTT assay; assay type: functional, cell-based; conditions: NCI-N87, 48 h
[8] = Acute toxicity in ip dosed ICR mouse assessed as mortality rate by measuring ratio at 1.57 logarithm of dose relative to total number of mouse; assay type: organism-based; conditions: in vivo
BGC-823 [9] = assay: Antitumor activity against human BGC-823 cells xenografted in BALB/c nude mouse assessed as tumor growth inhibition at 5 mg/kg, ip administered for 21 days relative to control; assay type: functional; conditions: BGC-823, 504 h, time 21 day, read-out: TGI
[10] = Acute toxicity in ip dosed ICR mouse assessed as animal death at 1.57 logarithm of dose; assay type: organism-based; conditions: in vivo
[11] = Acute toxicity in ip dosed ICR mouse assessed as lethal dose; assay type: organism-based; conditions: in vivo
[12] = Selectivity index, ratio of IC50 for cytotoxicity against human GES1 cells to IC50 for antiproliferative activity against human BGC-823 cells in presence of H2O2; assay type: toxicity, cell-based; conditions: GES1 cells and BGC-823 cells, read-out: Ratio IC50
BGC-823 [13] = assay: Induction of apoptosis in human BGC-823 cells assessed as viable cells at 1 uM incubated for 48 hrs by Annexin V-FITC/PI staining based flow cytometric analysis ( Rvb = 90.09 %); assay type: functional; conditions: read-out: Activity
[14] = Acute toxicity in ip dosed ICR mouse assessed as mortality rate by measuring ratio at 1.91 logarithm of dose relative to total number of mouse; assay type: organism-based; conditions: in vivo
SGC-7901 = assay: Antiproliferative activity against human SGC-7901 cells assessed as inhibition of cell proliferation incubated for 48 hrs by MTT assay; assay type: functional, cell-based; conditions: SGC-7901, 48 h
[15] = Acute toxicity in ip dosed ICR mouse assessed as mortality rate by measuring ratio at 2.16 logarithm of dose relative to total number of mouse; assay type: organism-based; conditions: in vivo
[16] = Acute toxicity in ip dosed ICR mouse assessed as mortality rate by measuring ratio at 1.68 logarithm of dose relative to total number of mouse; assay type: organism-based; conditions: in vivo
BGC-823 [17] = assay: Induction of apoptosis in human BGC-823 cells assessed as early apoptotic cells at 1 uM incubated for 48 hrs by Annexin V-FITC/PI staining based flow cytometric analysis ( Rvb = 1.68 %); assay type: functional
[18] = Acute toxicity in ip dosed ICR mouse assessed as animal death at 2.03 logarithm of dose; assay type: organism-based; conditions: in vivo
BGC-823 [19] = assay: Induction of apoptosis in human BGC-823 cells assessed as necrotic cells at 1 uM incubated for 48 hrs by Annexin V-FITC/PI staining based flow cytometric analysis ( Rvb = 1.79 %); assay type: functional
[20] = Binding affinity to DTT in PBS assessed as UV peak appearance at 288 nm at 360 uM by UV-Vis spectra analysis
[21] = Acute toxicity in ip dosed ICR mouse assessed as mortality rate by measuring ratio at 1.80 logarithm of dose relative to total number of mouse; assay type: organism-based; conditions: in vivo
[22] = Acute toxicity in ip dosed ICR mouse assessed as animal death at 2.16 logarithm of dose; assay type: organism-based; conditions: in vivo
BGC-823 [23] = assay: Antiproliferative activity against human BGC-823 cells assessed as inhibition of cell proliferation preincubated with H2O2 for 2 hrs followed by compound addition and measured after 48 hrs by MTT assay; assay type: functional, cell-based

IC50 (HepG2): 5500 nM
IC50 (MCF7): 29000 nM
IC50 (BGC-823 [4]): 2300 nM
Structure (SMILES): COc1cc(/C=C/CC(=O)OCCCOC(=O)[C@]23CCC(C)(C)C[C@H]2[C@H]2C(=O)C=C4[C@@]5(C)C=C(C#N)C(=O)C(C)(C)[C@@H]5CC[C@@]4(C)[C@]2(C)CC3)ccc1OCc1ccc(B2OC(C)(C)C(C)(C)O2)cc1
IC50 at 48 h [1]: 2400 nM
IC50 at 48 h [2]: 4200 nM
IC50 at 48 h [3]: 5600 nM

IC50 (HepG2): 65000 nM
IC50 (MCF7): 2400 nM
IC50 (BGC-823 [4]): 3200 nM
Structure (SMILES): CC1(C)CC[C@]2(C(=O)OCCCCCCOC(=O)c3ccc(OCc4ccc(B5OC(C)(C)C(C)(C)O5)cc4)cc3)CC[C@]3(C)[C@H](C(=O)C=C4[C@@]5(C)C=C(C#N)C(=O)C(C)(C)[C@@H]5CC[C@]43C)[C@@H]2C1
IC50 at 48 h [1]: 3300 nM
IC50 at 48 h [2]: 4700 nM
IC50 at 48 h [3]: 6400 nM

IC50 (HepG2): 2500 nM
IC50 (MCF7): 1400 nM
IC50 (BGC-823 [4]): 1600 nM
Structure (SMILES): CC1(C)CC[C@]2(C(=O)OCCCOC(=O)Cc3ccc(OCc4ccc(B5OC(C)(C)C(C)(C)O5)cc4)cc3)CC[C@]3(C)[C@H](C(=O)C=C4[C@@]5(C)C=C(C#N)C(=O)C(C)(C)[C@@H]5CC[C@]43C)[C@@H]2C1
IC50 at 48 h [1]: 2500 nM
IC50 at 48 h [2]: 2200 nM
IC50 at 48 h [3]: 4100 nM

IC50 (HepG2): 6500 nM
IC50 (MCF7): 9900 nM
IC50 (BGC-823 [4]): 8700 nM
Structure (SMILES): CC1(C)CC[C@]2(C(=O)OCCCOC(=O)C/C=C/c3ccc(OCc4ccc(B5OC(C)(C)C(C)(C)O5)cc4)cc3)CC[C@]3(C)[C@H](C(=O)C=C4[C@@]5(C)C=C(C#N)C(=O)C(C)(C)[C@@H]5CC[C@]43C)[C@@H]2C1
IC50 at 48 h [1]: 18300 nM
IC50 at 48 h [2]: 6900 nM
IC50 at 48 h [3]: 3300 nM

IC50 (HepG2): 15500 nM
IC50 (MCF7): 12900 nM
IC50 (BGC-823 [4]): 8300 nM
Structure (SMILES): COc1cc(C(=O)OCCCCOC(=O)[C@]23CCC(C)(C)C[C@H]2[C@H]2C(=O)C=C4[C@@]5(C)C=C(C#N)C(=O)C(C)(C)[C@@H]5CC[C@@]4(C)[C@]2(C)CC3)ccc1OCc1ccc(B2OC(C)(C)C(C)(C)O2)cc1
IC50 at 48 h [1]: 12400 nM
IC50 at 48 h [2]: 9200 nM
IC50 at 48 h [3]: 15600 nM

Structure (SMILES): COC(=O)[C@]12CCC(C)(C)C[C@H]1[C@H]1C(=O)C=C3[C@@]4(C)C=C(C#N)C(=O)C(C)(C)[C@@H]4CC[C@@]3(C)[C@]1(C)CC2 [BARDOXOLONE METHYL]
Activity (BGC-823 [5]): 97.6%
IC50 (MGC-803): 900 nM
Ratio [6]: 0.83
Activity (BGC-823 [7]): 24.5%
IC50 at 48 h [1]: 800 nM
IC50 (NCI-N87): 800 nM
Ratio [8]: 0
inhibition in vivo at 5 mg/kg (BGC-823 [9]): 51.7%
Activity [10]: Non-Toxic
LD50 [11]: 61.7 mg/kg
IC50 (HepG2): 500 nM
selectivity ratio [12]: 1
viability at 1 µM (BGC-823 [13]): 61.3%
Ratio [14]: 0.67
IC50 (SGC-7901): 600 nM
Ratio [15]: 1
Ratio [16]: 0.25
Activity (BGC-823 [17]): 6.59%
Activity [18]: Toxic
IC50 at 48 h [2]: 400 nM
IC50 (MCF7): 1200 nM
Activity (BGC-823 [19]): 7.6%
IC50 at 48 h [3]: 400 nM
Activity [20]: Active
IC50 (BGC-823 [4]): 500 nM
Ratio [21]: 0.6
Activity [22]: Toxic
IC50 (BGC-823 [23]): 500 nM

IC50 (HepG2): 2000 nM
IC50 (MCF7): 1000 nM
IC50 (BGC-823 [4]): 700 nM
Structure (SMILES): CC1(C)CC[C@]2(C(=O)OCCc3ccc(OCc4ccc(B5OC(C)(C)C(C)(C)O5)cc4)cc3)CC[C@]3(C)[C@H](C(=O)C=C4[C@@]5(C)C=C(C#N)C(=O)C(C)(C)[C@@H]5CC[C@]43C)[C@@H]2C1
IC50 at 48 h [1]: 1700 nM
IC50 at 48 h [2]: 800 nM
IC50 at 48 h [3]: 2100 nM
